target: T1, AhR receptor (Homo sapiens, UniProt P35869); assay: AhR agonism assay (luciferase reporter gene cells); assay type: cell-based; details: not given
T1 construct: expression of native (Human Hepatoma Huh-7) AhR receptor reporter gene cells; endogenous in cells; host or cells: Human hepatoma Huh-7 reporter cells (firefly luciferase under receptor-specific response elements)
T1 sequence (P35869 11-848): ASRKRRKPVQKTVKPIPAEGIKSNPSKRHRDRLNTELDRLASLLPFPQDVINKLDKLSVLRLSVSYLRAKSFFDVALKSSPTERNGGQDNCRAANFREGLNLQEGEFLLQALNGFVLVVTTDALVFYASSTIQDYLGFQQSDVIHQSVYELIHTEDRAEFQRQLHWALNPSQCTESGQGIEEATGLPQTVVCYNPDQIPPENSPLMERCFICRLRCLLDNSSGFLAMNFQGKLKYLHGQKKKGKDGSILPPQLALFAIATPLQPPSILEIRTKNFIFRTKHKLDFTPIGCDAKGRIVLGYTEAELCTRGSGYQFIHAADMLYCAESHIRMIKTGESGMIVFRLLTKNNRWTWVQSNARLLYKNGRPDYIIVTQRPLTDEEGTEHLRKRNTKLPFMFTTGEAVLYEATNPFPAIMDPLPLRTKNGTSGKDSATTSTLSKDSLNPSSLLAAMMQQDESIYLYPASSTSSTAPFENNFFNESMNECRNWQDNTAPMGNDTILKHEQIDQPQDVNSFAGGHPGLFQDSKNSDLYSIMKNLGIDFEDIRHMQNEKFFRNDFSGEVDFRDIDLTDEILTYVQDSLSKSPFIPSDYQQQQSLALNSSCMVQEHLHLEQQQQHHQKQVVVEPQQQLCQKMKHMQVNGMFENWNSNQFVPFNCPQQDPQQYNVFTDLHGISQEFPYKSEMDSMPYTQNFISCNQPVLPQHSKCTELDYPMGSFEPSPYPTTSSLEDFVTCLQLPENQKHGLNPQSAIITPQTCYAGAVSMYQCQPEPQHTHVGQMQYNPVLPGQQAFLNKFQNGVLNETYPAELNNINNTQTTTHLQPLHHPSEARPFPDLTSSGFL
Procedure: Assay Materials (plasmids): expression of native (Human Hepatoma Huh-7) AhR receptor reporter gene cells, the reporter vector includes functional firefly luciferase gene linked to upstream receptor-specific genetic response elements (GRE).
The AhR agonism assay comprises the following three steps:
1. Cell implantation: a suspension of AhR receptor cells was prepared in cell recovery medium (CRM; FBS containing 10% activated carbon). Then, the prepared suspension (100 μl) was dispensed into wells of a white 96-well culture plate.
2. Right before the beginning of the experiment, Master Stocks were diluted to “2× concentration” treatment media with appropriate compound screening media (CSM: FBS containing 10% activated carbon). The test compounds were subjected to gradient dilution with CSM medium containing 0.2% DMSO, so that the final concentration of DMSO in each experimental well for each treatment group was 0.1%. […] The experimental plate was placed in an incubator at 37° C. for 24 h.
3. Fluorescence detection and analysis: after completion of the incubation, the treatment media were discarded and 100 μL/well of luciferase detection reagent was added. The Ave RLU (average relative fluorescence intensity) of each well and the coefficient of variation for each experimental group were determined. The activity of AhR receptor with various concentrations of the test compounds was quantitatively determined using a ratio of Ave RLU^Test Cmpd of various concentrations of the test compounds in the experimental group to Ave RLU^Vehicle of the blank control group, and fold activation and EC50 were determined.
For data processing method, refer to J. Biomol.

Structure (SMILES) | EC50
COC(=O)c1nsc(C(=O)c2c[nH]c3ccccc23)n1 [Compound 8] | 1 to 10 µM
CC(C)c1nc(C(=O)c2c[nH]c3ccccc23)cs1 [Compound 9] | 0.001 to 1 µM
COC(=O)c1csc(C(=O)c2c[nH]c3ccccc23)c1 [Compound 15] | 10 to 100 µM
COC(=O)c1ccc(C(=O)c2c[nH]c3ccccc23)nc1 [Compound 18] | 1 to 10 µM
COC(=O)c1csc(C(=O)c2cn(CO)c3ccccc23)n1 [Compound 37] | 0.001 to 1 µM

same assay, conditions: Human Hepatoma Huh-7 AhR reporter gene cells, 24 h incubation at 37° C., 0.1% DMSO; read-out: EC50

Structure (SMILES) | EC50
CC(C)c1cnc(C(=O)c2c[nH]c3ccccc23)s1 [Compound 10] | 10 to 100 µM
CO/N=C(/c1nc(C(=O)OC)cs1)c1c[nH]c2ccccc12 [Compound 25-1] | 1 to 10 µM
CO/N=C(\c1nc(C(=O)OC)cs1)c1c[nH]c2ccccc12 [Compound 25-2] | 1 to 10 µM
COC(=O)c1csc(/C(=N/O)c2c[nH]c3ccccc23)n1 [Compound 26-1] | 1 to 10 µM
COC(=O)c1csc(/C(=N\O)c2c[nH]c3ccccc23)n1 [Compound 26-2] | 1 to 10 µM
COC(=O)c1csc(Cc2c[nH]c3ccccc23)n1 [Compound 28] | 10 to 100 µM
COC(=O)c1nnc(C(=O)c2c[nH]c3ccccc23)o1 [Compound 34] | 1 to 10 µM
O=C(c1nc(-c2nnn[nH]2)cs1)c1c[nH]c2ccccc12 [Compound 35] | 1 to 10 µM
COC(=O)c1csc(C(=O)c2cn(C3OC(COC(C)=O)C(OC(C)=O)C(OC(C)=O)C3OC(C)=O)c3ccccc23)n1 (centres unmarked) [Compound 38-2] | 0.001 to 1 µM
COC(=O)c1csc(C(=O)c2cn(C3OC(COC(C)=O)C(O)C(O)C3O)c3ccccc23)n1 (centres unmarked) [Compound 38-3] | 0.001 to 1 µM
COC(=O)c1csc(C(=O)c2cn(C3OC(CO)C(O)C(O)C3O)c3ccccc23)n1 (centres unmarked) [Compound 38-4] | 0.001 to 1 µM
O=C(c1nc(-c2cnccn2)cs1)c1c[nH]c2ccccc12 [Compound 39] | 0.001 to 1 µM
O=C(c1nc(-c2ccco2)cs1)c1c[nH]c2ccccc12 [Compound 40] | 0.001 to 1 µM
O=C(c1nc(C2CC2)cs1)c1c[nH]c2ccccc12 [Compound 41] | 0.001 to 1 µM
CC(C)[C@H](NC(=O)OC(C)(C)C)C(=O)n1cc(C(=O)c2nc(-c3nccs3)cs2)c2ccccc21 [Compound 42-1] | 0.001 to 1 µM
CC(C)[C@H](N)C(=O)n1cc(C(=O)c2nc(-c3nccs3)cs2)c2ccccc21 [Compound 42-2] | 0.001 to 1 µM
O=C(c1nc(-c2c[nH]cn2)cs1)c1c[nH]c2ccccc12 [Compound 43-2] | 0.001 to 1 µM
Nc1nc(-c2csc(C(=O)c3c[nH]c4ccccc34)n2)cs1 [Compound 44] | 0.001 to 1 µM

Now from value to compound:

EC50 | Structure (SMILES)
0.001 to 1 µM | COC(=O)c1csc(C(=O)c2cn(COC(=O)[C@@H](N)C(C)C)c3ccccc23)n1 [Compound 1-2]
0.001 to 1 µM | COC(=O)c1csc(C(=O)c2cn(COC(=O)[C@@H](N)C(C)(C)C)c3ccccc23)n1 [Compound 2-2]
0.001 to 1 µM | COC(=O)COCn1cc(C(=O)c2nc(C(=O)OC)cs2)c2ccccc21 [Compound 3]
0.001 to 1 µM | COC(=O)c1csc(C(=O)c2cn(C(=O)[C@@H](N)C(C)C)c3ccccc23)n1 [Compound 4-2]
0.001 to 1 µM | COCCOCCOCCOC(=O)n1cc(C(=O)c2nc(C(=O)OC)cs2)c2ccccc21 [Compound 5]
0.001 to 1 µM | COCCOCCOCCOCC(=O)OCn1cc(C(=O)c2nc(C(=O)OC)cs2)c2ccccc21 [Compound 6]
0.001 to 1 µM | COCCOCCOCCOCC(=O)OCC(=O)OCn1cc(C(=O)c2nc(C(=O)OC)cs2)c2ccccc21 [Compound 7]
0.001 to 1 µM | COC(=O)c1ccc(C(=O)c2c[nH]c3ccccc23)n1C [Compound 12]
0.001 to 1 µM | COC(=O)C1CSC(C(=O)c2c[nH]c3ccc(OC)cc23)=N1 (centres unmarked) [Compound 19-1]
0.001 to 1 µM | COC(=O)c1csc(C(=O)c2c[nH]c3ccc(OC)cc23)n1 [Compound 19-2]
0.001 to 1 µM | O=C(c1nc(-c2ccccn2)cs1)c1c[nH]c2ccccc12 [Compound 22]
0.001 to 1 µM | COC(=O)c1c[nH]c(C(=O)c2c[nH]c3ccccc23)n1 [Compound 23]
0.001 to 1 µM | COC(=O)CNC(=O)c1csc(C(=O)c2c[nH]c3ccccc23)n1 [Compound 27]
0.001 to 1 µM | N#Cc1csc(C(=O)c2c[nH]c3ccccc23)n1 [Compound 29]
0.001 to 1 µM | COC(=O)[C@@H]1COC(c2csc(C(=O)c3c[nH]c4ccccc34)n2)=N1 [Compound 30-1]
0.001 to 1 µM | COC(=O)c1coc(-c2csc(C(=O)c3c[nH]c4ccccc34)n2)n1 [Compound 30-2]
0.001 to 1 µM | O=C(c1nc(C2=NCCS2)cs1)c1c[nH]c2ccccc12 [Compound 31-1]
0.001 to 1 µM | O=C(c1nc(-c2nccs2)cs1)c1c[nH]c2ccccc12 [Compound 31-2]
0.001 to 1 µM | COC(=O)C1CSC(c2csc(C(=O)c3c[nH]c4ccccc34)n2)=N1 (centres unmarked) [Compound 32-1]
0.001 to 1 µM | COC(=O)c1csc(-c2csc(C(=O)c3c[nH]c4ccccc34)n2)n1 [Compound 32-2]
0.001 to 1 µM | O=C(c1nc(C2=NCCO2)cs1)c1c[nH]c2ccccc12 [Compound 33-1]
0.001 to 1 µM | O=C(c1nc(-c2ncco2)cs1)c1c[nH]c2ccccc12 [Compound 33-2]
0.001 to 1 µM | O=C(c1nc(-c2nnc[nH]2)cs1)c1c[nH]c2ccccc12 [Compound 36]
0.001 to 1 µM | COC(=O)c1csc(C(=O)c2cn(C3OC(COC(C)=O)C(OC(C)=O)C(OC(C)=O)C3OC(C)=O)c3ccccc23)n1 (centres unmarked) [Compound 38-1]

— patent publication US20190284149A1, “ARYL HYDROCARBON RECEPTOR MODULATOR” (ARIAGEN, INC., priority 2014, published 2019)
